Source: patent US10273267B2, “Beta-hairpin peptidomimetics as selective elastase inhibitors” (POLYPHOR AG, priority 2013, dated 2019)
Where a SMILES comes first, the peptide text is derived from it. [ ]: non-standard residue; d: D form. Oic = O=C(O)[C@@H]1C[C@@H]2CCCC[C@@H]2N1; Gly(octyl) = CCCCCCCC[C@H](N)C(=O)O; N(CH2CH2COOH)Gly = O=C(O)CCNCC(=O)O; hTyr = N[C@@H](CCc1ccc(O)cc1)C(=O)O; aThr = C[C@H](O)[C@H](N)C(=O)O; Nlys = NCCCCNCC(=O)O

Columns and labels:
Assay type in all cases: biochemical
[1] = molecular target: T1, human neutrophil elastase (Homo sapiens, UniProt P08246); experiment: Inhibition of human neutrophil elastase (hydrolysis of MeOSuc-AAPV-pNA); conditions: substrate MeOSuc-AAPV-pNA 0.3 mM, enzyme 10 nM, 37° C., pH 8; read-out: Human neutrophil elastase (hNE) IC50
T1 construct: purchased Serva Electrophoresis, Germany
T1 sequence (P08246 30-267): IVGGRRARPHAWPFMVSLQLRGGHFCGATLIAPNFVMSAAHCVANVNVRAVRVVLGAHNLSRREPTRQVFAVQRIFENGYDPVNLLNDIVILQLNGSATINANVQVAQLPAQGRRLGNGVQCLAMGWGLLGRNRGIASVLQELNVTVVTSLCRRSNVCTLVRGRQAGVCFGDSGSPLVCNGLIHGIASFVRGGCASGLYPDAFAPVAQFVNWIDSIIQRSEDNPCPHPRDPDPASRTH
Experimental: 2.2 Inhibition of Human Neutrophil Elastase
The ability of the peptides of the invention to inhibit the hydrolysis activity of human neutrophil elastase (Serva Electrophoresis, Germany) using the synthetic tetrapeptidic substrate MeOSuc-AAPV-pNA (Bachem, Switzerland) was determined as follows:
(§1) The above substrate (0.3 mM) and human neutrophil elastase (10 nM) were incubated at 37° C. with serial dilutions of the peptides (1% DMSO final) in assay buffer (50 mM Tris, pH 8, 300 mM NaCl, 0.01% Tween20). The release of pNA was followed by monitoring the change in absorbance at 405 nm for 30 minutes. Control assays with the same assay set-up as above, but without peptide, ran linearly. The dose-response data were fitted to the 4-parameter Hill equation providing the IC50 value using Graphpad (Prism 5).

[2] = molecular target: T2, porcine pancreatic elastase (Sus scrofa, UniProt P00772); experiment: Inhibition of porcine pancreatic elastase (hydrolysis of MeOSuc-AAA-pNA); conditions: for hNE/PPE selectivity: ratio of PPE IC50 to hNE IC50; for IC50: substrate MeOSuc-AAA-pNA 1 mM, enzyme 15 nM, 37° C., pH8, read-out: Porcine pancreatic elastase (PPE) IC50
T2 construct: purchased Sigma, USA
T2 sequence (P00772 27-266): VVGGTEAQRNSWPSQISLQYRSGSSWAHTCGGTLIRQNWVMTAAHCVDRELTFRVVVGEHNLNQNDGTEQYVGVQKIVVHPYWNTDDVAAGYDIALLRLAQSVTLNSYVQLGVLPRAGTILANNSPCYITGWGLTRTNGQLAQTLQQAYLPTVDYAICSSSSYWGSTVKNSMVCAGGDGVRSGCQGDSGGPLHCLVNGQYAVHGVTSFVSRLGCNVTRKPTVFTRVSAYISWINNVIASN
Experimental: 2.3 Inhibition of Porcine Pancreatic Elastase
The ability of the peptides of the invention to inhibit the hydrolysis activity of porcine pancreatic elastase (Sigma, USA) using the synthetic tripeptidic substrate MeOSuc-AAA-pNA (Bachem, Switzerland) was determined as follows:
as §1, with “(1” for “(0.3”, “porcine pancreatic” for “neutrophil”, “(15” for “(10”, “(0.5%” for “(1%”, “pH8, 100” for “pH 8, 300”

human proteinase 3 = molecular target: T3, human proteinase 3 (Homo sapiens, UniProt P24158); experiment: Inhibition of human proteinase 3 (substrate Boc-Ala-Ala-Nva-SBzl); conditions: for hNE/hPr3 selectivity: ratio of hPr3 IC50 to hNE IC50; for IC50: substrate Boc-Ala-Ala-Nva-SBzl 1 mM, enzyme 10 nM, 37° C., pH7.4, read-out: Human proteinase 3 (hPr3) IC50
T3 construct: purchased Elastin Products Company, USA
T3 sequence (P24158 28-248): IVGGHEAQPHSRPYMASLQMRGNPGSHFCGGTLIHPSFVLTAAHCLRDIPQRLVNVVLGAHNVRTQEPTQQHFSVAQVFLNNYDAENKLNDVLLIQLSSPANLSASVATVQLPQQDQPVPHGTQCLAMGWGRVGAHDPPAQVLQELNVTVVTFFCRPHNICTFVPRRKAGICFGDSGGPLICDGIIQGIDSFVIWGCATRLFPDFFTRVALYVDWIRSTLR
Experimental: 2.4 Inhibition of Human Proteinase 3
The inactivation of human proteinase 3 (Elastin Products Company, USA) by the peptides of the invention using synthetic tripeptidic substrate Boc-Ala-Ala-Nva-SBzl (Elastin Products Company, USA) was determined as follows:
as §1, with “(1 mM), 4,4′-dithiodipyridine (250 μM)” for “(0.3 mM)”, “proteinase 3” for “neutrophil elastase”, “(0.5%” for “(1%”, “pH7.4, 150” for “pH 8, 300”, “reaction process” for “release of pNA”, “340” for “405”

Structure (SMILES)	IC50 [1]	hNE/PPE selectivity [2]	IC50 [2]	hNE/hPr3 selectivity (human proteinase 3)	IC50 (human proteinase 3)
CCCCCCCC[C@@H]1NC(=O)[C@H](Cc2ccc(O)cc2)NC(=O)[C@@H](CCCCN)NC(=O)[C@H]([C@@H](C)O)NC(=O)[C@H](CCCCN)NC(=O)[C@H](CCC(N)=O)NC(=O)[C@@H]2CCCN2C(=O)[C@@H]2CCCN2C(=O)[C@H]([C@@H](C)CC)NC(=O)[C@H](CO)NC(=O)[C@H](C)NC(=O)[C@H]([C@@H](C)O)NC(=O)[C@H](CCC(=O)O)NC1=O [Example 27, Cyclo(-OctGly-Glu-Thr-Ala-Ser-Ile-Pro-Pro-GI n-Lys-Thr-^DLys-Tyr-)] (cyclo([Gly(octyl)]ETASIPPQKT[dK]Y))	0.0101 µM	4366	44.1 µM	3921	39.6 µM
CCCCCCCC[C@@H]1NC(=O)[C@@H]2CCCN2C(=O)[C@H]2CCCN2C(=O)[C@H]([C@@H](C)O)NC(=O)[C@H](CCCCN)NC(=O)[C@H](CCC(N)=O)NC(=O)[C@@H]2C[C@@H]3CCCC[C@@H]3N2C(=O)[C@@H]2CCCN2C(=O)[C@H]([C@@H](C)CC)NC(=O)[C@H](CO)NC(=O)[C@H](C)NC(=O)[C@H]([C@@H](C)O)NC(=O)[C@H](CCC(=O)O)NC1=O [Example 10, Cyclo(-OctGly-Glu-Thr-Ala-Ser-Ile-Pro-Oic-GI n-Lys-Thr-^DPro-Pro-)] (cyclo([Gly(octyl)]ETASIP[Oic]QKT[dP]P))	0.0073 µM	4959	36.2 µM	>13699	> 100 µM
CCCCCCCC[C@@H]1NC(=O)[C@H]2CCCN2C(=O)[C@H]2CCCN2C(=O)[C@H]([C@@H](C)O)NC(=O)[C@H](CCCCN)NC(=O)[C@H](CCC(N)=O)NC(=O)[C@@H]2CCCN2C(=O)[C@@H]2CCCN2C(=O)[C@H]([C@@H](C)CC)NC(=O)[C@H](CO)NC(=O)[C@H](C)NC(=O)[C@H]([C@@H](C)O)NC(=O)[C@H](CCC(=O)O)NC1=O [Example 12, Cyclo(-OctGly-Glu-Thr-Ala-Ser-Ile-Pro-Pro-GI n-Lys-Thr-^DPro-^DPro-)] (cyclo([Gly(octyl)]ETASIPPQKT[dP][dP]))	0.0152 µM	>6579	> 100 µM	>6579	> 100 µM
CCCCCCCC[C@@H]1NC(=O)[C@@H]2CCCN2C(=O)[C@H]2CCCN2C(=O)[C@H]([C@@H](C)O)NC(=O)[C@H](CCCCN)NC(=O)[C@H](CCC(N)=O)NC(=O)[C@@H]2CCCN2C(=O)CN(CCCCN)C(=O)[C@H]([C@@H](C)CC)NC(=O)[C@H](CO)NC(=O)[C@H](C)NC(=O)[C@H]([C@@H](C)O)NC(=O)[C@H](CCC(=O)O)NC1=O [Example 33, Cyclo(-OctGly-Glu-Thr-Ala-Ser-Ile-Nlys-Pro-Gln-Lys-Thr-^DPro-Pro-)] (cyclo([Gly(octyl)]ETASI[Nlys]PQKT[dP]P))	0.007 µM	1186	8.3 µM	871	6.1 µM
CC[C@H](C)[C@@H]1NC(=O)[C@H](CO)NC(=O)[C@H](C)NC(=O)[C@H]([C@@H](C)O)NC(=O)[C@H](CCC(=O)O)NC(=O)[C@H](CCC(=O)N[C@@H](Cc2ccccc2)C(=O)O)NC(=O)[C@@H]2CCCN2C(=O)[C@H]2CCCN2C(=O)[C@H](Cc2ccc(O)cc2)NC(=O)[C@H](CCCCN)NC(=O)[C@H](CCC(N)=O)NC(=O)[C@@H]2CCCN2C(=O)[C@@H]2CCCN2C1=O [Example 18, Cyclo(-Glu(Phe)-Glu-Thr-Ala-Ser-Ile-Pro-Pro-Gln-Lys-Tyr-^DPro-Pro-)] (cyclo(E(Phe)ETASIPPQKY[dP]P))	0.0159 µM	4660	74.1 µM	2906	46.2 µM

The next lines start with the values.

IC50 [1]	hNE/PPE selectivity [2]	IC50 [2]	hNE/hPr3 selectivity (human proteinase 3)	IC50 (human proteinase 3)	Structure (SMILES)
0.0014 µM	357	0.5 µM	714	1 µM	CCCCCCCC[C@@H]1NC(=O)[C@@H]2CCCN2C(=O)[C@H]2CCCN2C(=O)[C@H](CO)NC(=O)[C@H](CCCCN)NC(=O)[C@H](CCC(N)=O)NC(=O)[C@@H]2CCCN2C(=O)[C@@H]2CCCN2C(=O)[C@H]([C@@H](C)CC)NC(=O)[C@H](CO)NC(=O)[C@H](C)NC(=O)[C@H]([C@@H](C)O)NC(=O)[C@H](CCc2ccc(O)cc2)NC1=O [Example 47] (cyclo([Gly(octyl)][hTyr]TASIPPQKS[dP]P))
0.0068 µM	209	1.42 µM	149	1.01 µM	CCCCCCCC[C@@H]1NC(=O)[C@@H]2CCCN2C(=O)[C@H]2CCCN2C(=O)[C@H]([C@H](C)O)NC(=O)[C@H](CCCCN)NC(=O)[C@H](CCC(N)=O)NC(=O)[C@@H]2CCCN2C(=O)[C@@H]2CCCN2C(=O)[C@H]([C@@H](C)CC)NC(=O)[C@H](CO)NC(=O)[C@H](C)NC(=O)[C@H]([C@@H](C)O)NC(=O)[C@H](CCC(=O)O)NC1=O [Example 3, Cyclo(-OctGly-Glu-Thr-Ala-Ser-Ile-Pro-Pro-Gln-Lys-alloThr-^DPro-Pro-)] (cyclo([Gly(octyl)]ETASIPPQK[aThr][dP]P))
0.0116 µM	1112	12.9 µM	664	7.7 µM	CCCCCCCC[C@@H]1NC(=O)[C@H](Cc2ccc(O)cc2)NC(=O)[C@@H](Cc2ccc(O)cc2)NC(=O)[C@H]([C@@H](C)O)NC(=O)[C@H](CCCCN)NC(=O)[C@H](CCC(N)=O)NC(=O)[C@@H]2CCCN2C(=O)[C@@H]2CCCN2C(=O)[C@H]([C@@H](C)CC)NC(=O)[C@H](CO)NC(=O)[C@H](C)NC(=O)[C@H]([C@@H](C)O)NC(=O)[C@H](CCC(=O)O)NC1=O [Example 24, Cyclo(-OctGly-Glu-Thr-Ala-Ser-Ile-Pro-Pro-Gln-Lys-Thr-^DTyr-Tyr-)] (cyclo([Gly(octyl)]ETASIPPQKT[dY]Y))
0.0303 µM	512	15.5 µM	172	5.2 µM	CCCCCCCC[C@@H]1NC(=O)[C@@H]2CCCN2C(=O)[C@H]2CCCN2C(=O)[C@H]([C@@H](C)O)NC(=O)[C@H](CCCCN)NC(=O)[C@H](CCC(N)=O)NC(=O)CN(CCC(=O)O)C(=O)[C@@H]2CCCN2C(=O)[C@H]([C@@H](C)CC)NC(=O)[C@H](CO)NC(=O)[C@H](C)NC(=O)[C@H]([C@@H](C)O)NC(=O)[C@H](CCC(=O)O)NC1=O [Example 34, Cyclo(-OctGly-Glu-Thr-Ala-Ser-Ile-Pro-Nglu-Gln-Lys-Thr-^DPro-Pro-)] (cyclo([Gly(octyl)]ETASIP[N(CH2CH2COOH)Gly]QKT[dP]P))
0.0153 µM	2490	38.1 µM	627	9.6 µM	CC[C@H](C)[C@@H]1NC(=O)[C@H](CO)NC(=O)[C@H](C)NC(=O)[C@H]([C@@H](C)O)NC(=O)[C@H](CCc2ccc(O)cc2)NC(=O)[C@H](CCCNC(=N)N)NC(=O)[C@H](CCC(=O)O)NC(=O)[C@H]2CCCN2C(=O)[C@H]([C@@H](C)O)NC(=O)[C@H](CCCCN)NC(=O)[C@H](CCC(N)=O)NC(=O)[C@@H]2CCCN2C(=O)[C@@H]2CCCN2C1=O [Example 49] (cyclo(R[hTyr]TASIPPQKT[dP]E))
